Test results from US20250302846A1, “ANTIBIOTIC COMPOSITION AND METHODS OF USE THEREOF” (THE REGENTS OF THE UNIVERSITY OF COLORADO A BODY CORPORATE, priority 2022, published 2025).
In brackets after ≈: the same amount, converted by molar mass. Several values for one entry are separate records, joined by “and”; a condition that tells them apart may be missing. Identical values can stand only once. Like-named read-outs stand apart in the source and are kept apart here.

Experiments:
S. aureus FDA209 = assay: Membrane permeability by PI fluorescence; assay type: cell-based; details: mid-log S. aureus FDA209
Method: Mid-log phase S. aureus FDA209 cells were used for all experiments. A) Membrane fluidity was evaluated with a Laurdan generalized polarization (GP) assay. Cells were exposed at time 0 to DMSO, benzyl alcohol (BnOH, a membrane fluidizer [50 mM]), or D66 (1x MIC95=130 μM). Mean and SEM of three biological replicates performed with technical triplicates. B) Membrane permeability was monitored by PI fluorescence. Cells were exposed at time 0 to DMSO, SDS [0.3%], or D66. Samples were processed at the timepoints shown. Mean and SEM of three biological replicates performed with technical triplicates. C) Intracellular pH was monitored with the fluorescent probe BCECF-AM. Cells were exposed at time 0 to DMSO, the protonophore CCCP [100 μM], or D66. Mean and SEM of three biological replicates performed with technical triplicates. D) Intracellular ATP levels measured using the Promega BacTiter-Glo kit after 30 minutes of treatment with DMSO, chloramphenicol (Chlor), or D66. Mean and SEM of three biological replicates performed with technical triplicates. E) Respiration rates of cells incubated with resazurin and treated at time 0 as indicated. Mean and […]

S. Typhimurium (SL1344) = assay: Minimum inhibitory concentration determination in broth; assay type: cell-based; details: for MIC50: Salmonella enterica, TYPHIMURIUM
Method: A, B) Dose response curves monitoring S. Typhimurium (SL1344) or E. coli (K12) growth from an OD600 of 0.01, normalized to growth in 2% DMSO under the indicated condition. Mean and SEM of at least three biological replicates performed with technical triplicates; curve fit: sigmoidal, 4P L. C-E) Checkerboard assays of S. Typhimurium SL1344 growth from an OD600 of 0.01 in LB for 18 hours with novobiocin (up to 100 μg/mL) and (C) PMB (up to 48 μM), (D) JDI (up to 150 μM), or (E) D66 (up to 150 μM). Growth was normalized to growth in 2% DMSO, with the darkest blue representing 100% growth and white representing 0%.
Minimum inhibitory concentration determination: Overnight LB-grown cultures were diluted in LB or MHB to an optical density (OD600) of 0.01 and distributed into polystyrene 96-well flat-bottom plates (Greiner, 655185). […] The final DMSO concentration was at or below 2%. Where indicated, PMB [0.5 μg/mL] was added prior to D66. Plates were grown at 37° C. with shaking and OD600 was monitored (BioTek Synergy H1 or BioTek Eon). MICs were defined as the concentration at which 95% of growth was inhibited (OD600).

Bacillus subtilis = assay: Growth inhibition in broth (MIC95); assay type: cell-based
Method: FIG. 8A-B. D66 inhibits the growth of Gram-positive bacteria in broth. A) Dose response curves monitoring staphylococcal and B. subtills growth in the presence of D66 from an OD600 of 0.01, normalized to growth in 2% DMSO after 18 hours. Mean and SEM of at least three biological replicates performed with technical triplicates. B) Table of D66 concentrations that inhibit growth. For comparison, S. Typhimurium is included.
A) D66 quenches the fluorescent dye DiSC3 (5) in a dose-dependent manner. Data were normalized to DMSO at time 0. Relative fluorescent units (RFU). Mean and SEM of three biological replicates performed with technical triplicates. B, C) Mid-log phase S. aureus (FDA209) in LB were treated at time 0 with DMSO, gramicidin [2 μg/mL], or D66 (1x MIC95=130 μM). B) Fold change in RFU. Data are normalized to DMSO at time 0. C) Data normalized to account for the quenching effect of D66 on DiSC3 (5) observed in A. Mean and SEM of three biological replicates performed with technical triplicates. D) Bacillus subtilis expressing mNeonGreen-FtsZ at stationary phase in LB were placed on agar pads containing D66 at the indicated concentration (1x MIC95=89 μM). Confocal microscope images were taken after 15 minutes to ascertain whether D66 disrupted the septal localization of FtsZ.

[1] = Solubility limit in assay medium; assay type: physicochemical; details: bacterial growth broth (LB or MHB), 37 °C, plasma or biological fluid, kinetic from dmso stock, final DMSO at or below 2%
[2] = tested on: S. Typhimurium SL1344 or 14028 in HeLa cells; assay: CFU assay in infected HeLa cells; assay type: cell-based
Method: FIG. 1A-D. D66 is a small molecule that prevents S. Typhimurium replication and/or survival in macrophages. A). Structure of D66. B) RAW264.7 macrophage-like cells were infected with S. Typhimurium harboring a chromosomal sifB: : gfp reporter, treated with DMSO or D66 at two hours after infection, and monitored for bacterial accumulation (GFP+Macrophage Area) over 16 hours using the SAFIRE (Screen for Anti-infectives using Fluorescence microscopy of Intracellular Enterobacteriaceae) assay. The IC50 value is indicated. Mean and SD of biological duplicates with technical duplicates across 9 dilutions of D66. C, D) CFU assays were performed with RAW264.7 or HeLa cells infected with S. Typhimurium SL1344 or 14028 for two hours and treated for 16 hours with DMSO or 1.5-fold dilutions of D66, prior to lysis and plating for CFU. Symbols on the Y-axes are the CFU value from DMSO-treated samples. The IC50 values are indicated. Mean and SEMs of biological triplicates with technical duplicates across 8 dilutions of D66.
CFU assays were performed with RAW 264.7 cells seeded as above or with Hela cells (ATCC CCL-2) seeded at 1x10^4 cells per 96-well. Cells were infected as described above with either S. Typhimurium SL1344 or 14028, as indicated at an approximate MOI of 30 bacteria per RAW 264.7 cell and 150 bacteria per HeLa cell. Plates were centrifuged and gentamicin treated as above. […]

## O=C(Nc1cc(Cl)cc(Cl)c1)N1CCCN(Cc2ccccc2)CC1 [D66]
S. aureus FDA209
  cell membrane rupture (PI permeability): does not rupture the cell membrane
S. Typhimurium (SL1344); PMBN [20 μg/mL], MHB
  growth inhibition in the presence of polymyxin B nonapeptide (PMBN): did not enable D66 to inhibit growth
S. Typhimurium (SL1344); S. Typhimurium (SL1344) w/PMB (0.5 ug/mL), LB
  cMIC95 in LB: 54 µM
S. Typhimurium (SL1344); S. Typhimurium (SL1344) w/PMB (0.5 ug/mL), MHB
  cMIC95 in MHB: 46 µM
S. Typhimurium (SL1344); S. Typhimurium (SL1344), LB
  cMIC95 in LB: >150 µM
S. Typhimurium (SL1344); S. Typhimurium (SL1344), MHB
  cMIC95 in MHB: >150 µM
S. Typhimurium (SL1344); S. Typhimurium (SL1344) w/PMB (0.5 ug/mL), LB, read-out: MIC50 in LB
  MIC50: 45 µM and 17 µg/mL
S. Typhimurium (SL1344); S. Typhimurium (SL1344) w/PMB (0.5 ug/mL), MHB, read-out: MIC50 in MHB
  MIC50: 40 ± 1 µM
S. Typhimurium (SL1344); S. Typhimurium (SL1344), LB, read-out: MIC50 in LB
  MIC50: > 150 µM and > 57 µg/mL
S. Typhimurium (SL1344); S. Typhimurium (SL1344), MHB, read-out: MIC50 in MHB
  MIC50: > 150 µM
Bacillus subtilis
  MIC: 89 µM (≈ 33.7 µg/mL)
[1]
  solubility: ~150 µM (≈ 56.7 µg/mL)
[2]
  ability to reduce bacterial load in Hela cells: little effect
  reduction in CFU: 5-10 fold
